The text below walks through data of ChEMBL document CHEMBL1201862, “PubChem BioAssay data set” (2004).

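Cultured in 96-well plates, cells were exposed to test compound for 48 hours across five concentrations. GI50 = concentration required for 50% inhibition of growth.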 Activity calls are given as the source filed them. No stated cut-off is given here; in the data, active = GI50 up to about 1.1 µM and inactive = higher. Some results are limits rather than exact numbers.

Holding throughout (test): NCI-60 cell line screen, 48 h
Assay [1] relates to NCI-H23.
In assay [2] the test system is IGROV-1.
In assay [3] the test system is MCF7.
Assay [4] relates to HCT-116.
Assay [5] deals with MOLT-4.
For assay [6], the system named is RPMI-8226.
Assay [7] relates to M14.
In assay [8] the test system is HCT-15.
Assay [9] concerns EKVX.
Assay [10] concerns SNB-75.
Assay [11] concerns OVCAR-4.
The subject of assay [12] is DU-145.
The test system of assay [13] is NCI/ADR-RES.
Assay [14] concerns UACC-257.
Assay [15] relates to Malme-3M.
Assay [16] has as its system CCRF-CEM.
The subject of assay [17] is HT-29.
Assay [18] deals with COLO 205.
The test system of assay [19] is CAKI-1.
Assay [20] concerns ACHN.

In the case of `NCCP(=O)(O)O`, the GI50 in assay [1], in assay [2], in assay [3], in [4], in assay [5] and in assay [6] was > 100 µM (inactive) each time. For the same molecule, the GI50 was > 100 µM (inactive) in assay [7]; greater than 100 µM in [8]; > 100 µM (inactive) in assay [9]; > 100 µM (inactive) in assay [10]; > 100 µM (inactive) in assay [11]; > 100 µM (inactive) in assay [12]. Also, the GI50 in assay [13], in [14], in assay [15], in assay [16], in assay [17] and in assay [18] was > 100 µM (inactive) each time. Besides, the GI50 in assay [19] and in assay [20] was > 100 µM (inactive) each time.

As to `Cc1ncn(-c2ccccc2O)c1C`, the GI50 in [1], in assay [2], in assay [3], in assay [4], in [5] and in assay [6] was > 100 µM (inactive) throughout. Moreover, the GI50 in assay [7] is > 100 µM (inactive); in assay [8], greater than 100 µM; in [9], > 100 µM (inactive); in [10] it was > 100 µM (inactive); in assay [11], > 100 µM (inactive); in assay [12], > 100 µM (inactive). For the same molecule, the GI50 was > 100 µM (inactive) in assay [13]; 34.9 µM (inactive) in assay [14]; > 100 µM (inactive) in assay [15]; > 100 µM (inactive) in [16]; > 100 µM (inactive) in assay [17]; > 100 µM (inactive) in [18]. In addition, the GI50 in assay [19] and in assay [20] was > 100 µM (inactive) in each case.

As for `C[C@]12CCC(O)CC1=CC[C@@H]1[C@@H]2CC[C@]2(C)C(=O)[C@H](n3ccnc3)C[C@@H]12` (stereo not given in full), the GI50 in assay [1] is 33.8 µM (inactive); in assay [2], > 100 µM (inactive); in [3], 35.8 µM (inactive); in assay [4] it was 54.5 µM (inactive); in assay [5], 17.9 µM (inactive); in [6], 21.2 µM (inactive). In addition, the GI50 in assay [7] was 77.6 µM (inactive); in [8], greater than 100 µM; in assay [9], > 100 µM (inactive); in assay [10] it was > 100 µM (inactive); in [11], 89.1 µM (inactive); in assay [12] it was > 100 µM (inactive). Further, the GI50 in assay [13] is 39.8 µM (inactive); in assay [14] it was 40.4 µM (inactive); in assay [15], > 100 µM (inactive); in assay [16] it was 22.1 µM (inactive); in assay [17] it was 28.2 µM (inactive); in assay [18] it was 28.7 µM (inactive). Moreover, the GI50 in assay [19] and in assay [20] was > 100 µM (inactive) in each case.

`Cc1nn(C(=O)c2ccc(Cl)cc2)c2c1C(/C=C/c1ccccc1)SC(=N)N2` (stereo not given): the GI50 in assay [1], in assay [2], in assay [3], in assay [4], in assay [5] and in assay [6] was > 10 µM (inactive) in each case. For the same molecule, the GI50 is > 10 µM (inactive) in assay [7]; greater than 10 µM in assay [8]; > 10 µM (inactive) in [9]; > 10 µM (inactive) in assay [10]; > 10 µM (inactive) in assay [11]; > 10 µM (inactive) in assay [12]. The GI50 in assay [13], in [14], in [15], in assay [16], in assay [17] and in [18] was > 10 µM (inactive) each time. The GI50 in assay [19] and in assay [20] was > 10 µM (inactive) throughout.

Turning to `CN1C(=O)C(O)CC1c1cccc(F)c1` (stereo not given), the GI50 in [1], in assay [2], in assay [3], in [4], in [5] and in assay [6] was > 100 µM (inactive) each time. The GI50 is > 100 µM (inactive) in assay [7]; greater than 100 µM in [8]; > 100 µM (inactive) in [9]; 55.7 µM (inactive) in assay [10]; > 100 µM (inactive) in [11]; > 100 µM (inactive) in assay [12]. For the same molecule, the GI50 in assay [13], in [14], in assay [15], in assay [16], in assay [17] and in [18] was > 100 µM (inactive) throughout. The GI50 in assay [19] and in assay [20] was > 100 µM (inactive) throughout.

As to `CCOC(=O)c1c(NS(=O)(=O)c2ccc(Br)cc2)sc2c1CCCC2`, the GI50 in assay [1] is 6.34 µM (inactive); in assay [2], 4.21 µM (inactive); in assay [3], 10.3 µM (inactive); in assay [4], 7.52 µM (inactive); in assay [5], 4.91 µM (inactive); in [6], 4.6 µM (inactive). In addition, the GI50 in [7] was 4.8 µM (inactive); in assay [8], 7.35 µM; in assay [9], 4.52 µM (inactive); in [10], 4.11 µM (inactive); in assay [11] it was 30.1 µM (inactive); in [12], 8 µM (inactive). Besides, the GI50 in assay [13] was 1.57 µM (inactive); in [14] it was 9.23 µM (inactive); in [15], 12.9 µM (inactive); in assay [16], 5.51 µM (inactive); in [17], 5.3 µM (inactive); in assay [18], 13 µM (inactive). For the same molecule, the results for the GI50 in [19] and in assay [20] were 10.2 µM (inactive) and 3.93 µM (inactive), respectively.

As to `CN1CSC(=S)N(c2cccc(C(F)(F)F)c2)C1`, the GI50 was 17.9 µM (inactive) in [1]; 18.7 µM (inactive) in assay [2]; 17.3 µM (inactive) in [3]; 34 µM (inactive) in [4]; 24.7 µM (inactive) in [5]; 17.5 µM (inactive) in [6]. For the same molecule, the GI50 in assay [7] was 17.9 µM (inactive); in assay [8], 18.7 µM; in assay [9], 25 µM (inactive); in assay [10] it was 42.2 µM (inactive); in [11], 19.3 µM (inactive); in assay [12], 41.9 µM (inactive). The GI50 in [13] was 26.9 µM (inactive); in assay [14] it was 22.5 µM (inactive); in [15] it was 18.7 µM (inactive); in assay [16] it was 30.4 µM (inactive); in [17], 22.5 µM (inactive); in assay [18] it was 19 µM (inactive). Moreover, the GI50 in assay [19] is 26.4 µM (inactive); in assay [20], 19 µM (inactive).

For the molecule `C=C1C(=O)O[C@H]2[C@H]3O[C@@H](C[C@@H]12)[C@@]1(C)CC[C@H](O1)C(C)=CCC[C@H]3C`, the GI50 in assay [1] is 1.53 µM (inactive); in assay [2], 1.53 µM (inactive); in [3], 1.43 µM (inactive); in [4] it was 1.45 µM (inactive); in assay [5] it was 1.26 µM (inactive); in assay [6] it was 0.513 µM (active). For the same molecule, the GI50 in assay [7] was 1.65 µM (inactive); in [8] it was 1.49 µM; in [9] it was 1.52 µM (inactive); in assay [10] it was 1.73 µM (inactive); in assay [11], 1.59 µM (inactive); in assay [12] it was 1.49 µM (inactive). In addition, the GI50 is 1.72 µM (inactive) in [13]; 1.76 µM (inactive) in assay [14]; 1.75 µM (inactive) in assay [15]; 0.324 µM (active) in [16]; 1.34 µM (inactive) in assay [17]; 1.81 µM (inactive) in assay [18]. For the same molecule, the GI50 is 1.28 µM (inactive) in assay [19] and 1.55 µM (inactive) in assay [20].

Consider `CCOC(=O)/C(=C\NC(=S)Nc1ccc(Cl)c(Cl)c1)C(=O)c1ccccc1`, for which the GI50 is 8.61 µM (inactive) in assay [1]; 33 µM (inactive) in assay [2]; 33.3 µM (inactive) in [3]; 46.5 µM (inactive) in assay [4]; 19 µM (inactive) in [5]; 5.12 µM (inactive) in [6]. Besides, the GI50 in [7] is 27.3 µM (inactive); in assay [8], 29.1 µM; in assay [9], > 100 µM (inactive); in assay [10] it was 6.79 µM (inactive); in assay [11], 41.5 µM (inactive); in [12] it was > 100 µM (inactive). Also, the GI50 in assay [13] is 33 µM (inactive); in assay [14], 34 µM (inactive); in assay [15], 63.5 µM (inactive); in assay [16], 31.1 µM (inactive); in assay [17], 33.1 µM (inactive); in [18] it was 46 µM (inactive). In addition, the GI50 is 12.9 µM (inactive) in [19] and 18.2 µM (inactive) in assay [20].

For `CC(=O)Oc1c(C)c2c(c3ncccc13)OC(C)C2` (stereo not given), the GI50 in assay [1] is 17.3 µM (inactive); in assay [2], 6.98 µM (inactive); in assay [3], 13.3 µM (inactive); in assay [4] it was 14.9 µM (inactive); in assay [5], 6.41 µM (inactive); in [6] it was 16.7 µM (inactive). Moreover, the GI50 was 15.2 µM (inactive) in assay [7]; 12.1 µM in assay [8]; 17.1 µM (inactive) in assay [9]; 14.8 µM (inactive) in assay [10]; 16.3 µM (inactive) in [11]; 16.2 µM (inactive) in assay [12]. Besides, the GI50 is 15.6 µM (inactive) in [13]; 14.8 µM (inactive) in assay [14]; 16.3 µM (inactive) in assay [15]; 6.37 µM (inactive) in [16]; 18.8 µM (inactive) in assay [17]; 19.4 µM (inactive) in assay [18]. For the same molecule, the GI50 in [19] was 14.6 µM (inactive); in assay [20], 11.8 µM (inactive).
